This note sets out measurements from ChEMBL document CHEMBL4699559, “Discovery of CC-90011: A Potent and Selective Reversible Inhibitor of Lysine Specific Demethylase 1 (LSD1)” (J Med Chem, 2020).

Data set [1] is described as follows: AUC (0 to 6 hrs) in CD1 mouse at 10 mg/kg, po. The class given is ADME, organism-based. The arrangement: time < 6 hr, route oral, dose 10 mg/kg. To be noted: in vivo.
The target of the next data set is hERG (KCNH2) (Homo sapiens, UniProt Q12809). As to the kind of experiment: Inhibition of human ERG at 10 uM relative to control.
Chain of hERG (KCNH2) (Q12809 whole entry): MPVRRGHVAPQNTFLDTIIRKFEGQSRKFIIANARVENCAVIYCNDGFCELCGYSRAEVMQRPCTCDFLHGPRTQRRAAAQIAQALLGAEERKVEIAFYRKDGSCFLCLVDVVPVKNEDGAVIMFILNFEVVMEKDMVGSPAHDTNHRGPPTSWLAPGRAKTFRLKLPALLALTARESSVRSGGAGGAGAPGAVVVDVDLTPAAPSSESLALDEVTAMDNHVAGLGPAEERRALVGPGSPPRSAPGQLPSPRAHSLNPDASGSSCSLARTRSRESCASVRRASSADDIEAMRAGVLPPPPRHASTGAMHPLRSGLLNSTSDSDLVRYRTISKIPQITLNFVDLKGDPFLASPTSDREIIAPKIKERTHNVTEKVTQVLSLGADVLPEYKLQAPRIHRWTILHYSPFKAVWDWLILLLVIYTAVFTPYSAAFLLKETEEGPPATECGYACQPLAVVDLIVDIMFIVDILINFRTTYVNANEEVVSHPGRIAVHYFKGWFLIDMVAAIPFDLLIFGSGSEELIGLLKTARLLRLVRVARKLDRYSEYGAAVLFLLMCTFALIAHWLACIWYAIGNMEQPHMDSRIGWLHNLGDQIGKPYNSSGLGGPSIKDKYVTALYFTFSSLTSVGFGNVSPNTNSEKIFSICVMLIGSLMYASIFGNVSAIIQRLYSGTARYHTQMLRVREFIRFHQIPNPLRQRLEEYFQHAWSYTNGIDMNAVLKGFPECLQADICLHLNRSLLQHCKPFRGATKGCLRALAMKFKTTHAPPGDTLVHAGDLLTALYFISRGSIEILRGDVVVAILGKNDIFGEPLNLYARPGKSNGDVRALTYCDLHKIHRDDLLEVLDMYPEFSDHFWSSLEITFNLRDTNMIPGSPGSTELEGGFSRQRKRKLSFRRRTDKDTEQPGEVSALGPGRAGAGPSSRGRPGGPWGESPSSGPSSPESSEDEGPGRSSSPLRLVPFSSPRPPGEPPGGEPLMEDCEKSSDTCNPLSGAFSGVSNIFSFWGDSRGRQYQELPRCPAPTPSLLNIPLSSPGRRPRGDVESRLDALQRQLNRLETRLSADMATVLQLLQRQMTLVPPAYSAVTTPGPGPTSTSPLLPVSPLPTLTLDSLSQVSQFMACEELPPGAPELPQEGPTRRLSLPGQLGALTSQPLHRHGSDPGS
In data set [2] the test system is Mus musculus. The data set is described as follows: Induction of in-vivo cell differentiation in Crl:CD1-Foxn1nu mouse patient-derived xenograft model xenografted with human LU2514 assessed as increase in apoptotic bodies at 10 mg/kg, po QD for 28 days and measured 15 days post last dose by H and E staining based assay. Format: functional, organism-based. To be noted: time 43.0 day. (Xenograft models place foreign cells or tissue in a host animal.)

For data set [3], the target named is T1, Lysine-specific histone demethylase 2 (Homo sapiens) (UniProt Q8NB78).
T1 sequence (whole entry): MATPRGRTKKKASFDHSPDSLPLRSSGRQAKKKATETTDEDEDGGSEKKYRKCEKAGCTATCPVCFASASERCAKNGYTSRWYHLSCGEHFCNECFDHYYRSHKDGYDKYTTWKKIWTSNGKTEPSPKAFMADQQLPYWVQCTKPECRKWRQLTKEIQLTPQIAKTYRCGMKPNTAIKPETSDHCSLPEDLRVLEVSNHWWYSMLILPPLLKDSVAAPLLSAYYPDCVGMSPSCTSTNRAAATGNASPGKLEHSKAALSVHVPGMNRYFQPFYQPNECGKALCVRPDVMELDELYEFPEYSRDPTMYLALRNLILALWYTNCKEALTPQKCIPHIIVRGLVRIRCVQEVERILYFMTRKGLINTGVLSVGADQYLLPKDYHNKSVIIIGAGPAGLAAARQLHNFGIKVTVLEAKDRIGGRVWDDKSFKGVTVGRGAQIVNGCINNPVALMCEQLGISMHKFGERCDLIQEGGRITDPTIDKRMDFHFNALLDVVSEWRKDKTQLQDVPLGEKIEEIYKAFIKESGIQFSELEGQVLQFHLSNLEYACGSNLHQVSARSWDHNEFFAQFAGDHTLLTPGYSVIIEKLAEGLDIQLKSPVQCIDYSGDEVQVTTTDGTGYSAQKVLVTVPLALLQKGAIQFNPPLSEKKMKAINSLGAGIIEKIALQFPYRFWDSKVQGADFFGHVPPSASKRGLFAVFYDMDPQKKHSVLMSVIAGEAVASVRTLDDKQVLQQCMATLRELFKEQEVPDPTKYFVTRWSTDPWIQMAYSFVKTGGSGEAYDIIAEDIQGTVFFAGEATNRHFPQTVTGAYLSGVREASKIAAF
As to the kind of experiment: Inhibition of LSD2 (unknown origin) at. To be noted: dose microM <10.

A short description of data set [4]: Toxicity in Crl:CD1-Foxn1nu mouse xenografted with human LXFS615 cells assessed as weight loss at 5 mg/kg, po dosed daily for 30 days relative to control. The class given is organism-based. To be noted: in vivo, 720 h, time 30 day.
The test system of data set [5] is NCI-H1417. As to the kind of experiment: Antitumor activity against human NCI-H1417 cells xenografted in Crl:CD1-Foxn1nu mouse assessed as tumor growth regression level at 2.5 mg/kg, po QD for 65 days relative to control. The class given is functional. Conditions: time 65 day.
Data set [6] is described as follows: AUC (0 to 24 hrs) in CD1 mouse at 5 mg/kg, po. The class given is ADME, organism-based. The arrangement: time < 24 hr, route oral, dose 5 mg/kg. To be noted: in vivo.
For data set [7], the target named is T2, Amine oxidase [flavin-containing] B (Homo sapiens, UniProt P27338).
T2 sequence (P27338 whole entry): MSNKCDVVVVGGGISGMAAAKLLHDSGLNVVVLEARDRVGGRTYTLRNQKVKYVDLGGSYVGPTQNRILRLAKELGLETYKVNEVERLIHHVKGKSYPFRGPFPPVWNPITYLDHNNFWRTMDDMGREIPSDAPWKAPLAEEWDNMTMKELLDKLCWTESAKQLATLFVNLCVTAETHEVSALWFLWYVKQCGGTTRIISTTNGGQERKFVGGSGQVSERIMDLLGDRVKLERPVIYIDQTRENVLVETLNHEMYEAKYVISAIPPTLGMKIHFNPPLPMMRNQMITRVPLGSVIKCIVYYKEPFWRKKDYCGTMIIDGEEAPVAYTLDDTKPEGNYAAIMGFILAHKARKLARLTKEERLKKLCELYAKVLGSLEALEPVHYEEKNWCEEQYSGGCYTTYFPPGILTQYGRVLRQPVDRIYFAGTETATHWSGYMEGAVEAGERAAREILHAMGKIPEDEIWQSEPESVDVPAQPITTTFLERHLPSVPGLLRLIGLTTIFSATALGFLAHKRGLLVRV
The data set is described as follows: Inhibition of MAOB (unknown origin) at. Conditions: dose <10 µM.

The target in data set [8] is T3, Amine oxidase [flavin-containing] A (Homo sapiens, UniProt P21397).
T3 sequence (P21397 whole entry): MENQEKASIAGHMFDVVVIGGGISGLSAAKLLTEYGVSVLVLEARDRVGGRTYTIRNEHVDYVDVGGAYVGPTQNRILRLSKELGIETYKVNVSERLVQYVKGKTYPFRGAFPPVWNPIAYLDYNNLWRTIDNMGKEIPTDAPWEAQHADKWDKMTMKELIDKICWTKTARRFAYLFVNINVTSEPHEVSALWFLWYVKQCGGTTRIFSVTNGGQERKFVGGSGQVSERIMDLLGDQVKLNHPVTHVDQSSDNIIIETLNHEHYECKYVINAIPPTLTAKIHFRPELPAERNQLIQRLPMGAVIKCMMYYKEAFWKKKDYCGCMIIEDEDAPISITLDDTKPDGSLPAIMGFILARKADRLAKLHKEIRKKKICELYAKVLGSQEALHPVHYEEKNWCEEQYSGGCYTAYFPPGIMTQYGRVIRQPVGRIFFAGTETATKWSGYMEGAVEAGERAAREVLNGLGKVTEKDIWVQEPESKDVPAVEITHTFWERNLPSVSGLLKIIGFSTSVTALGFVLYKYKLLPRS
The data set is described as follows: Inhibition of MAOA (unknown origin) at. To be noted: dose <10 µM.

The next data set has as its system Kasumi 1. The data set is described as follows: Anti-proliferative activity in human Kasumi 1 cells incubated for 168 hrs by MTS assay. Format: functional, cell-based. Conditions: Kasumi 1, 168 h. Background: Tetrazolium dyes change colour on reduction, which living cells bring about.
The test system of data set [9] is Mus musculus. As to the kind of experiment: Induction of in-vivo cell differentiation in Crl:CD1-Foxn1nu mouse patient-derived xenograft model xenografted with human LU2514 assessed as reduction in nucleus to cytoplasm ratio at 10 mg/kg, po QD for 28 days and measured 15 days post last dose by H and E staining based assay. Conditions: time 43.0 day. Format: functional, organism-based.

For data set [10], the system named is Mus musculus. The data set is described as follows: Induction of in-vivo cell differentiation in Crl:CD1-Foxn1nu mouse patient-derived xenograft model xenografted with human LU2514 assessed as loosening of cellular structure at 10 mg/kg, po QD for 28 days and measured 15 days post last dose by H and E staining based assay. The class given is functional, organism-based. To be noted: time 43.0 day.

A short description of data set [11]: Clearance in CD1 mouse at 5 mg/kg, iv. The class given is ADME, organism-based. Conditions: in vivo.
Data set [12] can be described thus: Oral bioavailability in CD1 mouse at 5 mg/kg. The class given is ADME, organism-based. Conditions: in vivo.
Data set [13] can be described thus: Toxicity in Crl:CD1-Foxn1nu mouse xenografted with human NCI-H1417 cells assessed as weight gain level at 2.5 to 5 mg/kg, po QD for 65 days relative to control. Format: organism-based. Conditions: in vivo, 1560 h, dose 2.5-5 mg/kg, time 65 day.
Data set [14] can be described thus: Volume of distribution at steady state in CD1 mouse at 5 mg/kg, iv. The class given is ADME, organism-based. To be noted: in vivo, read-out: Vdss.
The nature of data set [15]: Antitumor activity against human LXFS615 xenografted in Crl:CD1-Foxn1nu mouse patient-derived xenograft model assessed as inhibition of tumor growth at 5 mg/kg, po dosed daily for 30 days relative to control. Format: functional. To be noted: 720 h, time 30 day, read-out: TGI.
Data set [16] can be described thus: Cmax in CD1 mouse at 5 mg/kg, po. The class given is ADME, organism-based. The arrangement: route oral, dose 5 mg/kg. Conditions: in vivo.
Data set [17] concerns Mus musculus. The data set is described as follows: Inhibition of GRP mRNA expression in Crl:CD1-Foxn1nu mouse xenografted with human NCI-H1417 cells at 2.5 mg/kg, po QD for 4 days and measured 24 hrs post last dose by qPCR analysis. The class given is functional, organism-based. Conditions: time 5.0 day.
Data set [18] is described as follows: Half life in CD1 mouse at 5 mg/kg, iv. Format: ADME, organism-based. Conditions: in vivo.
A further data set deals with IMR-90. The data set is described as follows: Anti-proliferative activity in human IMR-90 cells incubated for 168 hrs by MTS assay. Format: functional, cell-based. Conditions: IMR-90, 168 h.
Data set [19] is described as follows: Protein binding in mouse plasma. Format: ADME, cell-free. Conditions: read-out: PPB (converted).
Data set [20] is described as follows: Antitumor activity against human LU2514 xenografted in Crl:CD1-Foxn1nu mouse patient-derived xenograft model assessed as inhibition of tumor growth at 10 mg/kg, po QD for 28 days relative to control. The class given is functional. To be noted: 672 h, time 28 day, read-out: TGI.
Data set [21] relates to Mus musculus. The data set is described as follows: Inhibition of GRP mRNA expression in Crl:CD1-Foxn1nu mouse xenografted with human NCI-H1417 cells at 5 mg/kg, po QD for 4 days and measured 24 hrs post last dose by qPCR analysis. The class given is functional, organism-based. To be noted: time 5.0 day.
Data set [22] is described as follows: Antitumor activity against human LU2514 xenografted in Crl:CD1-Foxn1nu mouse patient-derived xenograft model assessed as inhibition of tumor growth at 5 mg/kg, po QD for 28 days relative to control. Format: functional. Conditions: 672 h, time 28 day, read-out: TGI.
The test system of data set [23] is NCI-H1417. As to the kind of experiment: Antitumor activity against human NCI-H1417 cells xenografted in Crl:CD1-Foxn1nu mouse assessed as tumor growth regression level at 5 mg/kg, po QD for 65 days relative to control. Format: functional. To be noted: time 65 day.

Active and inactive are the calls of the source.

Regarding `COc1ccc(-c2c(-c3ccc(C#N)cc3)nc(N3CCC(N)CC3)n(C)c2=O)cc1`, the AUC(0-t) (commonly exposure summed from dosing to a finite time, without extrapolation to infinity) at 6 h in [1] was 6.1 µM·h. Moreover, the inhibition (usually the relative decrease from the control value, in per cent) at 10 µM on hERG (KCNH2) was determined as 67%.
`Cc1ccc(-c2cnc(N3CC[C@@H]4NCC[C@@H]4C3)nc2-c2ccc(C#N)cc2)cc1` displayed an AUC(0-t) at 6 h in data set [1] of 14.5 µM·h. On hERG (KCNH2), 10 µM produced 95% inhibition.
For `Cc1ccc(-c2c(-c3ccc(C#N)cc3)nc(N3CCC(N)CC3)n(C)c2=O)cc1` the same measures were 10.5 µM·h and 83%.
For `COc1ccc(-c2c(-c3ccc(C#N)cc3)nc(N3CCC(N)CC3)n(C)c2=O)cc1F` the same measures were 3 µM·h and 48%.
Take `COc1ccc(-c2c(-c3ccc(C#N)c(F)c3)nc(N3CCC(N)CC3)n(C)c2=O)cc1F.O=S(=O)(O)c1ccccc1` [PULRODEMSTAT BESILATE]: the outcome with Mus musculus [2], with Mus musculus [9] and in the data set on Mus musculus [10] was Active. For the same molecule, in [3], the inhibition entry was “inactive”. Moreover, the Activity in [4] is given as less than 1%; in the data set on NCI-H1417 [5], 159%; in data set [13], “<= 7%”; in the data set with NCI-H1417 [23], 178%. Further, in data set [1], the AUC(0-t) at 6 h amounted to 2.6 µM·h. The same molecule showed an AUC(0-t) at 24 h in [6] of 1.8 µM·h. Besides, the “inhibition (INH)” value in data set [7] and in data set [8] was “Not Active” throughout. Besides, the EC50 (commonly the concentration giving half of the maximal effect) with Kasumi 1 is 2 nM; in the data set on IMR-90 it was more than 10000 nM. Further, in data set [11], the clearance (in general, the rate of elimination divided by the concentration) worked out at 32.4 mL/min/kg. Besides, the bioavailability – broadly, the share of a dose that reaches the circulation, judged against a reference dose that is usually intravenous – in data set [12] was 32%. The Vd in [14] came to 7.5 L/kg. Further, the inhibition in vivo at 5 mg/kg amounted to 78% in data set [15] and 39% in data set [22]. In addition, the peak level in [16] (Cmax) was 360 nM. Moreover, the inhibition entry in the data set with Mus musculus [17] and with Mus musculus [21] was “Active” in each case. For the same molecule, in data set [18], the half-life (usually the time needed for the level to fall by half in the phase considered) is 2 h. Further, at 10 µM the inhibition at hERG (KCNH2) was 59%. The fraction unbound in data set [19] was 0.08. The inhibition in vivo at 10 mg/kg in [20] was 56%.
For `Cc1ccc(-c2c(-c3ccc(C#N)cc3)nc(N3CCC(N)CC3)c(=O)n2C)cc1`, the AUC(0-t) at 6 h in data set [1] was found to be 7.3 µM·h. The same molecule registered an inhibition at 10 µM against hERG (KCNH2) of 95%.
For `Cc1ccc(-c2cnc(C[C@H]3CCNC3)nc2-c2ccc(C#N)cc2)cc1` the same measures were 1 µM·h and 91%.
